{
  "source": "paper PMC9138545",
  "about": "“Incorporation of Oxidized Phenylalanine Derivatives into Insulin Signaling Relevant Proteins May Link Oxidative Stress to Signaling Conditions Underlying Chronic Insulin Resistance” (Biomedicines, 2022)",
  "key": {"[1]": {"molecular_target": "T1, C-terminal SH2 domain of PI3K regulatory subunit 1 (Homo sapiens, UniProt P27986)", "T1 construct": "The N- and C-terminal SH2 domains (regions 321–433 and 614–724, respectively) of the PI3K regulatory subunit; hexa-histidine (inferred: expressed and purified like His-tagged PTP1B); made in house; host or cells: Escherichia coli (bacterial expression vector; strain BL21 (DE3) is stated only for PTP1B)", "T1 sequence (P27986 614-724)": "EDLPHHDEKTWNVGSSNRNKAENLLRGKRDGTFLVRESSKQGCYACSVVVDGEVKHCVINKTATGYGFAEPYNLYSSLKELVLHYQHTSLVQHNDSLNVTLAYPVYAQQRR", "experiment": "Fluorescence polarization binding, PI3K-SH2(C)", "details": "competitive FP; statement for the SH2 domains", "text": "The N- and C-terminal SH2 domains (regions 321–433 and 614–724, respectively) of the PI3K regulatory subunit were subcloned into a bacterial expression vector by PCR and then similarly expressed and purified as described above.\nFor in vitro fluorescence polarization (FP)-based affinity measurements, a peptide containing the phosphorylated tyrosine residue 632 of human IRS1 was labelled by lys-carboxyfluorescenine at its C-terminal end (GRKGSGD(pY)MPMSPKS(K-FITC). Synthesis of the labelled peptide was done by GenScript Inc. For competitive FP measurements, unlabeled peptides with either natural (para-phospho-Tyr) or unnatural (ortho-phospho-Tyr and meta-phospho-Tyr) phosphorylated amino acids (core sequence GRKGSGD(pY)MPMSPKV in all three cases) were used. Direct titration with the labelled peptide was done by generating a dilution series of the protein (N-terminal and C-terminal SH2 domains of PI3K regulatory subunit 1), with a constant (100 nM) peptide concentration in a standard buffer (100 mM NaCl, 20 mM TRIS pH = 8.0, 0.05% Brij-35 detergent). Competitive titrations were done by keeping the concentration of the protein-labelled peptide mixture constant (150 nM and 1500 nM C-terminal and N-terminal domain, respectively, with 100 nM labelled peptide) and varying the concentration of the unlabeled competitor peptide instead. […]"}, "[2]": {"test_system": "human PTP1B catalytic domain (1–299 aa)", "experiment": "PTP1B dephosphorylation assay, capillary electrophoresis", "format": "biochemical", "details": "80 μM phosphopeptide, 25 nM PTP1B, 50 mM TRIS, 150 mM NaCl, 1 mM EDTA, 2 mM DTT, pH 7.4", "method": "The cDNA segment encoding the human PTP1B catalytic domain (1–299 aa) was PCR amplified from a HEK293T cDNA pool and inserted into the pBH4 vector with BamHI and NotI restriction sites. This construct is only missing the C-terminal flexible region and the membrane binding segment of PTP1B. The protein was expressed with an N-terminal hexa-histidine tag. Recombinant active PTP1B was expressed in the Escherichia coli BL21 (DE3) bacterial strain. Briefly, cells were grown in an ampicillin-containing LB medium at 37 °C to OD = 0.6 and then cooled down to 18 °C and induced by the addition of 0.05 mM isopropyl-beta-D-thiogalactoside (IPTG). After an overnight expression at 18 °C, the pellet was harvested and washed with phosphate buffered saline (PBS). Following freezing at −80 °C, cells were lysed in an appropriate buffer (300 mM NaCl, 50 mM phosphate, 10 mM imidazole, 2 mM beta-mercapto-ethanol, 0.1% IGEPAL with pH = 8.0, and 0.5 mM benzamidine with 0.5 mM PMSF protease inhibitors added) with the help of sonification. The lysate was centrifuged at 20,000 rpm for 30 min and the supernatant (~30 mL) was mixed with 1 mL Ni-NTA resin slurry (50%). After 45 min incubation at 4 °C, the mixture was transferred to gravity columns and washed with 10-10 mL of imidazole (40 mM imidazole, 300 mM NaCl, 50 mM phosphate, pH = 8.0 with 2 mM beta-mercapto-ethanol) and high salt (1000 mM NaCl, 20 mM imidazole, 20 mM TRIS, pH = 8.0 with 2 mM beta-mercapto-ethanol) containing wash buffers, each. PTP1B was eluted by applying 5 mL elution buffer (400 mM imidazole, 200 mM NaCl, 10% glycerol, 20 mM TRIS, pH = 8.0, with 0.1% IGEPAL). The eluted protein was supplemented with tricarboxy-ethyl-phosphine (TCEP) reducing agent at 2 mM concentration.\nThe Ni-NTA purified PTP1B protein was further purified by anion exchange chromatography. […]\nBackground electrolyte (BGE) components phosphoric acid and triethylamine were purchased from Sigma (St. Louis, MO, USA) and from Merck GmbH (Darmstadt, Germany), respectively. […] On-line absorption at 200 nm was monitored by DAD UV-Vis detector. […]"}, "[3]": {"test_system": "acute insulin resistance", "details": "ref [6]; cited from earlier work", "text": "Acute insulin resistance induced by tumor necrosis factor alpha (TNFα) or dexamethasone could be ameliorated by the antioxidants N-acetylcysteine, manganese (III) tetrakis (4-benzoicacid) porphyrin (MnTBAP), or by induction of antioxidant enzymes such as superoxide dismutase or catalase."}, "[4]": {"test_system": "patients (chronic insulin resistance)", "details": "chronic antioxidant therapy, e.g., in diabetic neuropathy; ref [7]; cited from earlier work", "text": "Moreover, using the so-called “breakthrough” therapy, a 2–4 week decrease in glucotoxicity is able to normalize glycemia by decreasing insulin resistance for months or years. Because clinical insulin resistance can be reverted, it is not an alteration of the DNA, but rather some type of protein abnormality; this can be hypothesized given the background of this oxidative stress-induced clinical condition."}, "[5]": {"test_system": "type 2 diabetic patients", "details": "ref [40]; cited from earlier work", "text": "Elevated levels of m- and/or o-Tyr have been described in the vascular wall of cynomolgus monkeys as well as in cataract lenses."}},
  "data": [
    {"molecule": "GRKGSGDF(3-PO4H2)MPMSPKV [GRKV4, phospho-meta-Tyr containing IRS-1 YXXM motif peptide]", "values": [
      {"measurement": "binding affinity compared to phospho-para-Tyr peptide (GRKV2), PI3K-SH2(C)", "setting": "[1]", "value": "greatly reduced binding affinity"},
      {"measurement": "dephosphorylation by PTP1B", "setting": "[2]", "value": "incapable of dephosphorylating"}
    ]},
    {"molecule": "CC(=O)N[C@@H](CS)C(=O)O", "note": "[N-acetylcysteine]", "values": [
      {"measurement": "acute insulin resistance induced by TNFα or dexamethasone", "setting": "[3]", "value": "ameliorated"}
    ]},
    {"molecule": "GRKGSGDF(2-PO4H2)MPMSPKV [GRKV6, phospho-ortho-Tyr containing IRS-1 YXXM motif peptide]", "values": [
      {"measurement": "binding affinity compared to phospho-para-Tyr peptide (GRKV2), PI3K-SH2(C)", "setting": "[1]", "value": "greatly reduced binding affinity"},
      {"measurement": "dephosphorylation by PTP1B", "setting": "[2]", "value": "incapable of dephosphorylating"}
    ]},
    {"molecule": "GRKGSGDF(4-PO4H2)MPMSPKV [GRKV2, phospho-para-Tyr containing IRS-1 YXXM motif peptide]", "values": [
      {"measurement": "dephosphorylation by PTP1B", "setting": "[2]", "value": "apart from the p-Tyr peptide, none of the modified Tyr containing peptides could be dephosphorylated by PTP1B"}
    ]},
    {"molecule": "O=C(O)CCCCC1CCSS1", "note": "(stereo not drawn) [alpha-lipoic acid]", "values": [
      {"measurement": "chronic insulin resistance", "setting": "[4]", "value": "able to improve chronic insulin resistance"}
    ]},
    {"molecule": "O=C(O)c1ccc(-c2c3nc(c(-c4ccc(C(=O)O)cc4)c4ccc([n-]4)c(-c4ccc(C(=O)O)cc4)c4nc(c(-c5ccc(C(=O)O)cc5)c5ccc2[n-]5)C=C4)C=C3)cc1.[Mn+3]", "note": "[MnTBAP, manganese (III) tetrakis (4-benzoicacid) porphyrin]", "values": [
      {"measurement": "acute insulin resistance induced by TNFα or dexamethasone", "setting": "[3]", "value": "ameliorated"}
    ]},
    {"molecule": "Oc1ccc(/C=C/c2cc(O)cc(O)c2)cc1", "note": "[resveratrol]", "values": [
      {"measurement": "insulin resistance", "setting": "[5]", "value": "improvement in insulin resistance"},
      {"measurement": "urinary excretion of o-Tyr", "setting": "[5]", "value": "decrease in urinary excretion of o-Tyr"}
    ]}
  ]
}
